A word on the IC50: it is the concentration that gives 50% inhibition.

The nature of the test: Inhibition of JAK2 V617F mutant in BAF3 cells assessed as reduction in cell growth measured after 72 hrs by MTT assay.

Turning to `C1=C/COCc2cc(ccc2OCCN2CCCC2)Nc2nccc(n2)-c2cccc(c2)COC/1` [ONX-0803], the IC50 was determined as 1.06 µM.

For the origin of these results see BindingDB's records for doi:10.1021/acs.jmedchem.9b01348 (West China Hospital of Sichuan University, 2019).
